Measured values as given in patent US7304171B2, “Compounds and methods for cytoprotection” (Migenix Corp., priority 2004, dated 2007).

System: rd1 mutant mice retinas (retinal photoreceptors)
Assay: Murine rd1 retinal explant model for retinitis pigmentosa: photoreceptor cytoprotection in vitro
Type: cell-based, mouse
Conditions: 1 μM
Text: Retinas were dissected at postnatal day 7 from rd1 mutant mice (Bowes et al., 1990 Nature 347:677; Frasson et al., 1999 Nat. Med. 5:1183), which carry a spontaneous cGMP phosphodiesterase mutation in retinal rod photoreceptors, leading to rapid and premature rod cell apoptosis in this animal model for the ophthalmic degenerative disease retinitis pigmentosa (RP); control retinas were from the background strain (C3H). Retinas were mounted flat on nitrocellulose membranes attached to culture dish inserts and maintained in serum-free R16 culture medium for 21 days, reflecting a stage corresponding to postnatal day 28 (Caffe et al., 2001 J. Chem. Neuroanat. 22:263). […] Slides containing the sections were coded and scored using light microscopy, by counting the rows of photoreceptors in the outer nuclear layer of the retina for five fields from each section. […] Typically, six sections from each preparation were scored, representing different cutting depths, and the collected averages from the six slides were averaged to yield an average value of remaining rows of retinal photoceptors per retina, which value was used for statistical analysis. Data were analyzed by Student's paired t-test; ratios were also calculated of treated:untreated retinas from each intra-animal pair and analyzed by Student's one-group t-test, with the population mean set to 1.0.

Question: For `CO/N=C1\CCC2C3CCc4cc(O)c(C56CC7CC(CC(C7)C5)C6)cc4C3CC[C@]12C` (some centres unmarked) [compound 5], which “No. Rows Photoreceptors” value (rd1 retinal explant, 21 days of culture, n = 4, paired t-test p = 0.038 vs contralateral DMSO control (1.87 ± 0.11)) is on record?
Answer: 2.11 ± 0.13

Question: And the “Treated:Untreated” value (ratio of photoreceptor rows, treated:untreated retina of each intra-animal pair, 21 days, 1-group t-test p = 0.144)?
Answer: 1.10 ± 0.10
